Test results from BindingDB's records for doi:10.1002/cbic.201600612 (University of Glasgow, 2017).

Columns and labels:
Coagulation factor XII = target: T1, Coagulation factor XII (Homo sapiens, UniProt P00748); experiment: Protease Inhibition Assay; conditions: pH 7.4
T1 sequence (P00748 whole entry): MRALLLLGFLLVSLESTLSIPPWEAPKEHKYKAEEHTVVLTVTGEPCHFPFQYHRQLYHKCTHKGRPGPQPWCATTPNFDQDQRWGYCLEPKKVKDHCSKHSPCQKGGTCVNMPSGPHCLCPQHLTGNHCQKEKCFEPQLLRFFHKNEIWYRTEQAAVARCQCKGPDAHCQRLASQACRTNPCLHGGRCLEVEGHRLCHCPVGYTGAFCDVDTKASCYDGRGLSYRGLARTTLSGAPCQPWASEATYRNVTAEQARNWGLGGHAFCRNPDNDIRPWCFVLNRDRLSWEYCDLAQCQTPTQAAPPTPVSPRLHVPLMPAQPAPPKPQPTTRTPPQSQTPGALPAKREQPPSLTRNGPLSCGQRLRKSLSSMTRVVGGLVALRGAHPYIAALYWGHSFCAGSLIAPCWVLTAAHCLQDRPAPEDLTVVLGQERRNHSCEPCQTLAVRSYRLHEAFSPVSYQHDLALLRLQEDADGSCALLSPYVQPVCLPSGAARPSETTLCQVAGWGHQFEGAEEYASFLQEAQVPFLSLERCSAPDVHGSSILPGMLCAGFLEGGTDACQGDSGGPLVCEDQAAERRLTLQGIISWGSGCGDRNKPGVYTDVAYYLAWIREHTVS
Procedure: (§1) The inhibition of plasma kallikrein and coagulation factor FXII was assessed by incubating the proteases with bicyclic peptide (twofold dilutions) and measuring the residual protease activity with fluorogenic substrates. The inhibition assays were performed in buffer ([…]) containing Tris HCl (pH 7.4, 10 mm), NaCl (150 mm), MgCl2 (10 mm), CaCl2 (1 mm), bovine serum albumin (BSA, 0.1 %, w/v), Triton-X100 (0.01%, v/v), and DMSO (5 %, v/v). Final concentrations of human plasma kallikrein (Innovative Research) and human FXII (Innovative Research)were 0.25 nm and 10 nm, respectively. The fluorogenic substrates Z-Phe-Arg-AMC (plasma kallikrein) and Z-Gly-Gly-Arg-AMC (FXII) were used at a final concentration of […]. Fluorescence intensity was measured with a Tecan Infinite M 200 Pro plate reader (λex= 368 nm, λem=468 nm).

Plasma kallikrein = Plasma kallikrein (Human, UniProt P03952); experiment: Protease Inhibition Assay; conditions: pH 7.4
Procedure: as §1

Chain of Plasma kallikrein (P03952 20-390 S143N limits assumed): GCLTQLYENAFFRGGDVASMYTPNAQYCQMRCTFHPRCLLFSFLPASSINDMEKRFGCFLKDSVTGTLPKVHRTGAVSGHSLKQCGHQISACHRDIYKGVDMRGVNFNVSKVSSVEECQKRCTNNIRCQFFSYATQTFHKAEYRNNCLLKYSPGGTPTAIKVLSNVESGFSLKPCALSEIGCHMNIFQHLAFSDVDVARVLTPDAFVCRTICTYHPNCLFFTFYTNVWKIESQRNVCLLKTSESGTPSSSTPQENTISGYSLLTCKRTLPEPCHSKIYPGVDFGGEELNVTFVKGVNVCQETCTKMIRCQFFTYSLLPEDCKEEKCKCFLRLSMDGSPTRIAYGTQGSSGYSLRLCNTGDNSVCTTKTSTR
Chain of Plasma kallikrein (P03952 391-638 limits assumed): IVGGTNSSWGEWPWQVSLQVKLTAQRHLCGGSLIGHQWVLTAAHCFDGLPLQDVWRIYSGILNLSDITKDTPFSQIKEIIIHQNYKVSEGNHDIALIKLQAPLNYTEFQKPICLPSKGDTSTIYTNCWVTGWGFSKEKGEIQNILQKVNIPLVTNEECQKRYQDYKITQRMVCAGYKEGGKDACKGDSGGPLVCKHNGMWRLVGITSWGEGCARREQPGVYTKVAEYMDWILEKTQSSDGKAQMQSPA

Compound	Ki (Coagulation factor XII)	Ki (Plasma kallikrein)
CSCC(=O)N1CN(C(=O)CSC)CN(C(=O)CSC)C1 [TATB-FXII618 (15)]	340 nM	540 nM
CSCCC(=O)N1CN(C(=O)CCSC)CN(C(=O)CCSC)C1 [TATA-FXII618 (14)]	25 nM	
CSCc1nc(CSC)nc(CSC)n1 [TBMT-FX618 (16)]	1220 nM	20 nM
CSCc1cc(CSC)cc(CSC)c1 [TBMB-PK15 (10)]		1.3 nM
